Where a name gives a salt, the structure may show the parent alone.

In the assay the target is T1, EGFR del746-750 T790M (Homo sapiens, UniProt P00533, DEL746-750/T790M).
T1 construct: purchased Carna Biosciences 08-528
T1 sequence (P00533 with tags, fused parts or gaps DEL746-750/T790M limits assumed): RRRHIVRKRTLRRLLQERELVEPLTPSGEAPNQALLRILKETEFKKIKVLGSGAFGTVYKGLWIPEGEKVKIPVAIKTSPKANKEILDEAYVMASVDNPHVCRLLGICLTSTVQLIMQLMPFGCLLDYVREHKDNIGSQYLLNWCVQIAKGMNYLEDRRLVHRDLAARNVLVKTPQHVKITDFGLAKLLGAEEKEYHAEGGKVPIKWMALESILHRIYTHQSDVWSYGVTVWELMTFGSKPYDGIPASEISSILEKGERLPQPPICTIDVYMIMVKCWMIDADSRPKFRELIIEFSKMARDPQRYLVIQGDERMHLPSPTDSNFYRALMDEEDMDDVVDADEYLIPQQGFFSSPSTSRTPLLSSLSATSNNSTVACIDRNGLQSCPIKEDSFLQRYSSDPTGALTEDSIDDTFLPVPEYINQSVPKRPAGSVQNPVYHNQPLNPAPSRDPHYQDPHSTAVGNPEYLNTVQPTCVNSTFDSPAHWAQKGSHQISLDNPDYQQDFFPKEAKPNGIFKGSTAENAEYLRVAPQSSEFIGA
Description: EGFR del746-750 T790M biochemical assay (Caliper mobility shift). Particulars: 5 μM ATP, 30 min, room temperature; apparent Ki (Morrison) converted by Cheng-Prusoff, Km of ATP 2.1 μM; read-out: EGFR(T790M/d746-750) Ki.
In the case of `Cc1nc2cnc(Nc3ccnc(N4CCC(O)C(C)(C)C4)n3)cc2n1C(C)C` (centres unmarked) [Example 427, 1-(4-((1-isopropyl-2-methyl-1H-imidazo[4,5-c]pyridin-6-yl)amino)pyrimidin-2-yl)-3,3-dimethylpiperidin-4-ol], the Ki was 119 nM.

For the compound `Cc1nc2cnc(Nc3ccnc(N4CC[C@H](O)C4)n3)cc2n1C(C)C` [Example 681], the Ki turned out to be 189 nM. For the compound `C[C@@H](O)c1nc2cnc(Nc3ccnc(N4CC[C@@H](O)[C@@H](F)C4)n3)cc2n1[C@H](C)C(F)(F)F` [Example 687], the Ki amounted to 107 nM.

Take `C[C@H](n1c([C@@H](C)O)nc2cnc(Nc3ccnc(N4CC[C@H](O)[C@H](F)C4)n3)cc21)C(F)(F)F` [Example 289, (3R,4S)-3-Fluoro-1-{4-[2-((R)-1-hydroxyethyl)-1-((S)-2,2,2-trifluoro-1-methylethyl)-1H-imidazo[4,5-c]pyridin-6-ylamino]pyrimidin-2-yl}-piperidin-4-ol]: the Ki was 3.35 nM.

In the case of `C[C@H](n1c([C@@H](C)O)nc2cnc(Nc3ccnc(N4C[C@@H](F)[C@@H](O)[C@@H](F)C4)n3)cc21)C(F)(F)F` [Example 701], the Ki was 4.4 nM. With `Cc1nc2cnc(Nc3ccnc(-c4cnc(N)s4)n3)cc2n1C(C)C` [Example 614, [2-(2-Aminothiazol-5-yl)pyrimidin-4-yl]-(1-isopropyl-2-methyl-1H-imidazo[4,5-c]pyridin-6-yl)amine], the Ki is 3.34 nM.

`CC(C)n1c(CO)nc2cnc(Nc3ccnc(OCC(C)(C)S(C)(=O)=O)n3)cc21` [Example 660]: the Ki was determined as 171 nM. As to `CCC(C)n1cc(C(=O)NC2CCOCC2)c2cnc(Nc3ccnc(-c4cnn(S(=O)(=O)C5CC5)c4)n3)cc21` (single isomer, unassigned; (+)) [Example 321, (+)-1-(sec-Butyl)-6-((2-(1-(cyclopropylsulfonyl)-1H-pyrazol-4-yl)pyrimidin-4-yl)amino)-N-(tetrahydro-2H-pyran-4-yl)-1H-pyrrolo[3,2-c]pyridine-3-carboxamide], the Ki stood at 1.45 nM. The value for `CCC(C)n1cc(C(=O)NC2CCOCC2)c2cnc(Nc3ccnc(N4CC[C@@H](O)[C@@H](F)C4)n3)cc21` (single isomer, unassigned) [Example 324] was 2.39 nM; that for `Cc1nc2cnc(Nc3ccnc(N4CC[C@H]([S+](C)[O-])[C@H](F)C4)n3)cc2n1C(C)C` (mixture of isomers) [Example 618, [2-(±)-(cis-3-Fluoro-4-methanesulfinylpiperidin-1-yl)pyrimidin-4-yl]-(1-isopropyl-2-methyl-1H-imidazo[4,5-c]pyridin-6-yl)amine] was 236 nM. As for `CC(C)n1c(CO)nc2cnc(Nc3ccnc(N4CCC5(OCCO5)C(F)C4)n3)cc21` (centres unmarked) [Example 654], the Ki stood at 36 nM. For the compound `CC(C)n1c(C(C)(C)O)nc2cnc(Nc3ccnc(-c4cnn(S(=O)(=O)C5CC5)c4)n3)cc21` [Example 563, 2-{6-[2-(1-Cyclopropanesulfonyl-1H-pyrazol-4-yl)pyrimidin-4-ylamino]-1-isopropyl-1H-imidazo[4,5-c]pyridin-2-yl} propan-2-ol], the Ki is 11.1 nM. For `CO[C@H]1CCN(c2nccc(Nc3cc4c(cn3)nc(C)n4C(C)C)n2)C[C@@H]1F` (racemic) [Example 525, (±)-[2-((trans)-3-Fluoro-4-methoxypiperidin-1-yl)pyrimidin-4-yl]-(1-isopropyl-2-methyl-1H-imidazo[4,5-c]pyridin-6-yl)amine], the Ki was determined as 222 nM. As to `COC1CCN(c2nccc(Nc3cc4c(cn3)c(C(=O)NCCO)cn4C(C)C)n2)CC1` [Example 121, N-(2-hydroxyethyl)-1-isopropyl-6-((2-(4-methoxypiperidin-1-yl)pyrimidin-4-yl)amino)-1H-pyrrolo[3,2-c]pyridine-3-carboxamide], the Ki amounted to 24.4 nM. Consider `CO[C@@H]1CCN(c2nccc(Nc3cc4c(cn3)nc(CO)n4C(C)C)n2)C[C@@H]1Cl` (racemic) [Example 634, (6-(2-((±)-(cis)-3-Chloro-4-methoxypiperidin-1-yl)pyrimidin-4-ylamino)-1-isopropyl-1H-imidazo[4,5-c]pyridin-2-yl)methanol], for which the Ki came to 146 nM. `C[C@H](n1c([C@@H](C)O)nc2cnc(Nc3ccnc(N4CC[C@@H](O)[C@@H](F)C4)n3)cc21)C(F)(F)F` [Example 291, (3S,4R)-3-Fluoro-1-{4-[2-((R)-1-hydroxyethyl)-1-((S)-2,2,2-trifluoro-1-methylethyl)-1H-imidazo[4,5-c]pyridin-6-ylamino]pyrimidin-2-yl}-piperidin-4-ol]: the Ki is 3.59 nM.

For the compound `CO[C@@]1(C)CCN(c2nccc(Nc3cc4c(cn3)nc(C)n4C(C)C)n2)C[C@H]1F` [Example 673], the Ki stood at 97.1 nM.

Regarding `Cc1nc2cnc(Nc3ccnc(N4CC[C@@H](S(C)(=O)=O)[C@H](F)C4)n3)cc2n1C(C)C` (racemic) [Example 616, [2-(±)-(trans-3-Fluoro-4-methanesulfonylpiperidin-1-yl)pyrimidin-4-yl]-(1-isopropyl-2-methyl-1H-imidazo[4,5-c]pyridin-6-yl)amine], the Ki was 483 nM. The value for `Cc1n[nH]cc1-c1nccc(Nc2cc3c(cn2)nc(C)n3C(C)C)n1` [Example 399, 1-isopropyl-2-methyl-N-(2-(3-methyl-1H-pyrazol-4-yl)pyrimidin-4-yl)-1H-imidazo[4,5-c]pyridin-6-amine] was 14.1 nM; that for `COc1nc2cnc(Nc3ccnc(N4CCC(OC)CC4)n3)cc2n1C(C)C` [Example 11, (1-Isopropyl-2-methoxy-1H-imidazo[4,5-c]pyridin-6-yl)-[2-(4-methoxypiperidin-1-yl)pyrimidin-4-yl]amine] was 98.4 nM.

As to `CC(C)n1cnc2cnc(Nc3ccnc(N4CCC5(CCCO5)CC4)n3)cc21` [Example 141, (1-Isopropyl-1H-imidazo[4,5-c]pyridin-6-yl)-[2-(1-oxa-8-azaspiro[4.5]dec-8-yl)pyrimidin-4-yl]amine formate salt], the Ki came to 55.5 nM. Consider `Cc1nc2cnc(Nc3ccnc(N4CCC5(OCCO5)C(F)C4)n3)cc2n1C(C)C` (centres unmarked) [Example 653], for which the Ki came to 34.3 nM. In the case of `CS[C@H]1CCN(c2nccc(Nc3cc4c(cn3)nc(CO)n4C(C)C)n2)C[C@H]1F` (racemic) [Example 622, (±)-{6-[2-(cis-3-Fluoro-4-methylsulfanylpiperidin-1-yl)pyrimidin-4-ylamino]-1-isopropyl-1H-imidazo[4,5-c]pyridin-2-yl}methanol], the Ki turned out to be 170 nM. On to `CC1CCC(n2c(CO)nc3cnc(Nc4ccnc(-c5cnn(S(=O)(=O)C6CC6)c5)n4)cc32)C1` (centres unmarked) [Example 697], for which the Ki came to 16.9 nM. As for `CC(C)n1c(CO)nc2cnc(Nc3ccnc(N4CC[C@@](O)(C5CC5)[C@H](F)C4)n3)cc21` (racemic) [Example 633, (3RS,4RS)-4-cyclopropyl-3-fluoro-1-(4-((2-(hydroxymethyl)-1-isopropyl-1H-imidazo[4,5-c]pyridin-6-yl)amino)pyrimidin-2-yl)piperidin-4-ol], the figure is 210 nM; as for `CC(CC1CC1)n1c(CO)nc2cnc(Nc3ccnc(-c4cnn(S(=O)(=O)C5CC5)c4)n3)cc21` (centres unmarked) [Example 488, (1-(1-cyclopropylpropan-2-yl)-6-(2-(1-(cyclopropylsulfonyl)-1H-pyrazol-4-yl)pyrimidin-4-ylamino)-1H-imidazo[4,5-c]pyridin-2-yl)methanol], 2.17 nM. `CS[C@H]1CCN(c2nccc(Nc3cc4c(cn3)nc(C)n4C(C)C)n2)C[C@H]1F` (racemic) [Example 617, [2-(±)-(cis-3-Fluoro-4-methylsulfanylpiperidin-1-yl)pyrimidin-4-yl]-(1-isopropyl-2-methyl-1H-imidazo[4,5-c]pyridin-6-yl)amine]: the Ki is 115 nM.

Take `Cc1nc2cnc(Nc3ccnc(OCC(C)(C)S(C)(=O)=O)n3)cc2n1C(C)C` [Example 656]: the Ki was 214 nM. Take `CCC(C)n1cc(C(=O)NCC(F)(F)F)c2cnc(Nc3ccnc(-c4cnn(S(=O)(=O)C5CC5)c4)n3)cc21` (centres unmarked) [Example 704]: the Ki was found to be 3.35 nM. As for `Cc1nc2cnc(Nc3ccnc(-c4cnc(N(C)C)s4)n3)cc2n1C(C)C` [Example 317, [2-(2-Dimethylaminothiazol-5-yl)pyrimidin-4-yl]-(1-isopropyl-2-methyl-1H-imidazo[4,5-c]pyridin-6-yl)amine], the figure is 2.97 nM; as for `COC1CCN(c2nccc(Nc3cc4c(cn3)c(-c3cc[nH]n3)cn4C(C)C)n2)CC1` [Example 64], 1.2 nM. `Cc1nc2cnc(Nc3ccnc(NCC(F)(F)C(N)=O)n3)cc2n1C(C)C` [Example 610, 2,2-Difluoro-3-[4-(1-isopropyl-2-methyl-1H-imidazo[4,5-c]pyridin-6-ylamino)pyrimidin-2-ylamino]propionamide]: the Ki is 13.2 nM. As for `Cc1nn(CCO)cc1-c1cn(C(C)C)c2cc(Nc3ccnc(-c4cnn(S(=O)(=O)C5CC5)c4)n3)ncc12` [Example 437, 2-(4-(6-(2-(1-(cyclopropylsulfonyl)-1H-pyrazol-4-yl)pyrimidin-4-ylamino)-1-isopropyl-1H-pyrrolo[3,2-c]pyridin-3-yl)-3-methyl-1H-pyrazol-1-yl)ethanol], the figure is 1.21 nM; as for `CC(C)n1c(CO)nc2cnc(Nc3ccnc(N4CCC(S(C)(=O)=O)CC4)n3)cc21` [Example 661], 900 nM. As for `CC(C)n1cc(C(=O)NC2CCOCC2)c2cnc(Nc3ccnc(NCC(C)(C)S(C)(=O)=O)n3)cc21` [Example 664], the figure is 5.68 nM; as for `C[C@H](O)c1nc2cnc(Nc3ccnc(N4CC[C@H](O)[C@H](F)C4)n3)cc2n1[C@H](C)C(F)(F)F` [Example 690], 387 nM; as for `CO[C@@H]1CCN(c2nccc(Nc3cc4c(cn3)nc(CO)n4[C@@H](C)C(F)(F)F)n2)C[C@@H]1F` [Example 657], 17.4 nM. As for `C[C@H](n1c(CO)nc2cnc(Nc3ccnc(N4CC[C@@H](O)[C@@H](F)C4)n3)cc21)C(F)(F)F` [Example 666], the Ki turned out to be 7.26 nM.
